# Assay results as given in patent publication US12268683B2, “Compounds and methods for synergistic activation of M channels” (THE REGENTS OF THE UNIVERSITY OF CALIFORNIA, priority 2018, dated 2025).
# “Also recorded” adds a separate entry of the source.
# Legend:
# KCNQ2-W236L/KCNQ3-W265L = KCNQ2-W236L/KCNQ3-W265L (Homo sapiens, UniProt O43525+O43526, W236L/W265L); assay: TEVC of double-mutant WL/WL KCNQ2/3 channels; type: cell-based
# Description: (§1) cRNA transcripts encoding human KCNA1, KCNQ1, KCNQ2, KCNQ3, KCNQ4, or KCNQ5 were generated by in vitro transcription using the T7 polymerase message machine kit (Thermo Fisher Scientific), after vector linearization, from cDNA sub-cloned into plasmids incorporating X. laevis β-globin 5′ and 3′ UTRs flanking the coding region to enhance translation and cRNA stability. cRNA was quantified by spectrophotometry. Mutant cDNAs were generated by site-directed mutagenesis using a QuikChange kit according to manufacturer's protocol (Stratagene, San Diego, Calif.) and corresponding cRNAs prepared as above. Defolliculated stage V and VI X. laevis oocytes (Ecocyte Bioscience, Austin, Tex.) were injected with Kv channel a subunit cRNAs (10 ng total per oocyte). Oocytes were incubated at 16° C. in Barth's saline solution (Ecocyte) containing penicillin and streptomycin, with daily washing, for 3-5 days prior to two-electrode voltage-clamp (TEVC) recording.
# TEVC recording was performed at room temperature with an OC-725C amplifier (Warner Instruments, Hamden, Conn.) and pClamp10.2 software (Molecular Devices, Sunnyvale, Calif.) 3-5 days after cRNA injection as described in the section above. Oocytes were placed in a small-volume oocyte bath (Warner) and viewed with a dissection microscope. Chemicals were sourced from Sigma. Bath solution was (in mM): 96 NaCl, 4 KCl, 1 MgCl2, 1 CaCl2. 10 HEPES (pH 7.6). […] Currents were recorded in response to pulses between −80 and +40 mV at 20 mV intervals, or a single pulse to +40 mV, from a holding potential of −80 mV, to yield current-voltage relationships, current magnitude, and for quantifying activation rate. […]
# cRNA transcripts encoding human KCNQ2, KCNQ3, KCNQ4, KCNQ5 (Kv7.2-Kv7.5) were generated by in vitro transcription using the T7 polymerase mMessage mMachine kit (Thermo Fisher Scientific), after vector linearization, from cDNA sub-cloned into plasmids incorporating Xenopus laevis β-globin 5′ and 3′ UTRs flanking the coding region to enhance translation and cRNA stability. cRNA was quantified by spectrophotometry. […]
# KCNQ2/3 [1] = biological target: T1, KCNQ2/3 (Homo sapiens, UniProt O43525+O43526); assay: TEVC of heteromeric KCNQ2/3 channels expressed in Xenopus laevis oocytes; type: cell-based; details: for effect on voltage dependence of KCNQ2/3 activation, screen of M. oppositifolius leaf compounds: 100 μM, MTX and palmitic acid 30 μM
# Description: as §1
# TEVC recording was performed at room temperature with an OC-725C amplifier (Warner Instruments, Hamden, Conn.) and pClamp10.2 software (Molecular Devices, Sunnyvale, Calif.) 3-5 days after cRNA injection as described in the section above. Oocytes were placed in a small-volume oocyte bath (Warner) and viewed with a dissection microscope. Chemicals were sourced from Sigma. Bath solution was (in mM): 96 NaCl, 4 KCl, 1 MgCl2, 1 CaCl2. 10 HEPES (pH 7.6). […] MTX (DMSO), sorbic acid (ethanol), and glutaconic acid (molecular grade H2O) were stored at −20° C. as 1 M stocks. Oleamide was stored as a 1 mM stock in ethanol at 4° C. Palmitic acid was conjugated with bovine serum albumin as a 1 mM stock and stored at −20° C. All compounds were diluted to working concentrations each experimental day. All compounds were introduced to the recording bath via gravity perfusion at a constant flow of 1 ml/min for 3 min prior to recording. Pipettes were of 1-2 MΩ resistance when filled with 3 M KCl. Currents were recorded in response to pulses between −80 and +40 mV at 20 mV intervals, or a single pulse to +40 mV, from a holding potential of −80 mV, to yield current-voltage relationships, current magnitude, and for quantifying activation rate. TEVC data analysis was performed with Clampfit10.2 (Molecular Devices) and Graphpad Prism software (GraphPad, San Diego, Calif., USA); values are stated as mean±SEM. Normalized tail currents were plotted versus prepulse voltage and fitted with a single Boltzmann function: […]
# cRNA transcripts encoding human KCNQ2, KCNQ3, KCNQ4, KCNQ5 (Kv7.2-Kv7.5) were generated by in vitro transcription using the T7 polymerase mMessage mMachine kit (Thermo Fisher Scientific), after vector linearization, from cDNA sub-cloned into plasmids incorporating Xenopus laevis β-globin 5′ and 3′ UTRs flanking the coding region to enhance translation and cRNA stability. cRNA was quantified by spectrophotometry. Mutant KCNQ2 and KCNQ3 cDNAs were generated with site-directed mutagenesis using a QuikChange kit according to the manufacturer's protocol (Stratagene, San Diego, Calif.) and corresponding cRNAs prepared as above.
# KCNQ3* (KCNQ3-A315T) = KCNQ3* (KCNQ3-A315T) (Homo sapiens, UniProt O43525, A315T); assay: TEVC of homomeric KCNQ3* expressed in Xenopus oocytes; type: cell-based
# Description: as §1
# (§2) TEVC recording was performed at room temperature with an OC-725C amplifier (Warner Instruments, Hamden, Conn.) and pClamp10.2 software (Molecular Devices, Sunnyvale, Calif.) 3-5 days after cRNA injection as described in the section above. Oocytes were placed in a small-volume oocyte bath (Warner) and viewed with a dissection microscope. Chemicals were sourced from Sigma. Bath solution was (in mM): 96 NaCl, 4 KCl, 1 MgCl2, 1 CaCl2. 10 HEPES (pH 7.6). […] MTX (DMSO), sorbic acid (ethanol), and glutaconic acid (molecular grade H2O) were stored at −20° C. as 1 M stocks. Oleamide was stored as a 1 mM stock in ethanol at 4° C. Palmitic acid was conjugated with bovine serum albumin as a 1 mM stock and stored at −20° C. All compounds were diluted to working concentrations each experimental day. All compounds were introduced to the recording bath via gravity perfusion at a constant flow of 1 ml/min for 3 min prior to recording. Pipettes were of 1-2 MΩ resistance when filled with 3 M KCl. Currents were recorded in response to pulses between −80 and +40 mV at 20 mV intervals, or a single pulse to +40 mV, from a holding potential of −80 mV, to yield current-voltage relationships, current magnitude, and for quantifying activation rate. TEVC data analysis was performed with Clampfit10.2 (Molecular Devices) and Graphpad Prism software (GraphPad, San Diego, Calif., USA); values are stated as mean±SEM. Normalized tail currents were plotted versus prepulse voltage and fitted with a single Boltzmann function:
# (§3) cRNA transcripts encoding human KCNQ2, KCNQ3, KCNQ4, KCNQ5 (Kv7.2-Kv7.5) were generated by in vitro transcription using the T7 polymerase mMessage mMachine kit (Thermo Fisher Scientific), after vector linearization, from cDNA sub-cloned into plasmids incorporating Xenopus laevis β-globin 5′ and 3′ UTRs flanking the coding region to enhance translation and cRNA stability. cRNA was quantified by spectrophotometry. Mutant KCNQ2 and KCNQ3 cDNAs were generated with site-directed mutagenesis using a QuikChange kit according to the manufacturer's protocol (Stratagene, San Diego, Calif.) and corresponding cRNAs prepared as above. Defolliculated stage V and VI Xenopus laevis oocytes (Ecocyte Bioscience, Austin, Tex.) were injected with KCNQ channel α subunit cRNAs (5-10 ng). The oocytes were incubated at 16° C. in Barth's saline solution (Ecocyte) containing penicillin and streptomycin, with daily washing, for 2-5 days prior to two-electrode voltage-clamp (TEVC) recording.
# (§4) TEVC recording was performed at room temperature using a OC-725C amplifier (Warner Instruments, Hamden, Conn.) and pClamp8 software (Molecular Devices, Sunnyvale, Calif.) 2-5 days after cRNA injection as described in the section above. The oocytes were placed in a small-volume oocyte bath (Warner) and viewed with a dissection microscope. Unless otherwise stated, chemicals were sourced from Sigma. Bath solution was (in mM): 96 NaCl, 4 KCl, 1 MgCl2, 1 CaCl2, 10 HEPES (pH 7.6).
# KCNQ2 = KCNQ2 (Homo sapiens, UniProt O43526); assay: TEVC of homomeric KCNQ2 expressed in Xenopus oocytes; type: cell-based; details: Example 4; read-out: EC50, ΔV0.5act of KCNQ2
# Description: as §1, §2, §3, §4
# KCNQ1 = KCNQ1 (Homo sapiens, UniProt P51787); assay: TEVC of homomeric KCNQ1 expressed in Xenopus oocytes; type: cell-based; details: Example 4; read-out: EC50, ΔV0.5act of KCNQ1
# Description: Oocytes were placed in a small-volume oocyte bath (Warner) and viewed with a dissection microscope. Chemicals were sourced from Sigma. Bath solution was (in mM): 96 NaCl, 4 KCl, 1 MgCl2, 1 CaCl2. 10 HEPES (pH 7.6). […] MTX (DMSO), sorbic acid (ethanol), and glutaconic acid (molecular grade H2O) were stored at −20° C. as 1 M stocks. Oleamide was stored as a 1 mM stock in ethanol at 4° C. Palmitic acid was conjugated with bovine serum albumin as a 1 mM stock and stored at −20° C. All compounds were diluted to working concentrations each experimental day. All compounds were introduced to the recording bath via gravity perfusion at a constant flow of 1 ml/min for 3 min prior to recording. Pipettes were of 1-2 MΩ resistance when filled with 3 M KCl. Currents were recorded in response to pulses between −80 and +40 mV at 20 mV intervals, or a single pulse to +40 mV, from a holding potential of −80 mV, to yield current-voltage relationships, current magnitude, and for quantifying activation rate. […]
# KCNQ5 = KCNQ5 (Homo sapiens, UniProt Q9NR82); assay: TEVC of homomeric KCNQ5 expressed in Xenopus oocytes; type: cell-based
# Description: as §1, §2, §3, §4
# KCNQ4 = KCNQ4 (Homo sapiens, UniProt P56696); assay: TEVC of homomeric KCNQ4 expressed in Xenopus oocytes; type: cell-based
# Description: as §1, §2, §3, §4
# KCNQ2/3 [2] = biological target: T1, KCNQ2/3; details: cited from earlier work
# [3] = system: pentylene tetrazole-induced seizures; assay: PTZ chemoconvulsant assay; type: in vivo, mouse
# Description: We compared anticonvulsant activities of test compounds in male C57BL/6 mice (Charles River) aged 2-3 months. Mice were housed and used according to the recommendations in the Guide for the Care and Use of Laboratory Animals of the National Institutes of Health (NIH Publication, 8th edition, 2011). The study protocol was approved by the Institutional Animal Care and Use Committee of University of California, Irvine, which confirmed that all relevant ethical regulations were adhered to. Chemicals were sourced from Sigma (St. Louis, Mo., USA). A pentylene tetrazole (PTZ) chemoconvulsant assay was used-. […] Following the PTZ injection, mice were caged individually and an observer (GWA) blinded to the drug used recorded, over 20 min, clonic and tonic seizure incidence, and seizure-related mortality.
# We quantified the anticonvulsant activities of (E)-2-dodecenal and tridecanal in male C57BL/6 mice (Charles River, Wilmington, Mass.) aged 2-3 months. The mice were housed and used according to the recommendations in the Guide for the Care and Use of Laboratory Animals of the National Institutes of Health (NIH Publication, 8th edition, 2011). The study protocol was approved by the Institutional Animal Care and Use Committee of University of California, Irvine. The chemicals were sourced from Sigma (St. Louis, Mo., USA). We used a pentylene tetrazole (PTZ) chemoconvulsant assay as we previously described (30). We injected the mice intraperitoneally with (E)-2-dodecenal (2 or 20 mgkg^−1) (with or without 2.5 mgkg^−1 XE991) or tridecanal (20 mgkg^−1) solubilized in PBS, or vehicle control (PBS), and then 30 minutes later we injected mice intraperitoneally with 80 mgkg-PTZ. Following the PTZ injection, the mice were caged individually and an observer (GWA) blinded to the experimental condition timed the latency to first seizure.
# We compared anticonvulsant activities of 3FMSG in male C57BL/6 mice (Charles River) aged 2-3 months. Mice were housed and used according to the recommendations in the Guide for the Care and Use of Laboratory Animals of the National Institutes of Health (NIH Publication, 8th edition, 2011). The study protocol was approved by the Institutional Animal Care and Use Committee of University of California, Irvine, which confirmed that all relevant ethical regulations were adhered to. Chemicals were sourced from Sigma (St. Louis, Mo., USA). We used a pentylene tetrazole (PTZ) chemoconvulsant assay as we previously described^27. Mice were injected intraperitoneally with 3FMSG (5 mg kg^−1) or vehicle control (PBS) and then 30 minutes later injected intraperitoneally with 80 mg kg^−1 PTZ. Following the PTZ injection, mice were caged individually and an observer (GWA) blinded to the drug used recorded seizure activity over 20 minutes.
structure (smiles),measurement,setting,value
Oc1ccccc1S [2-mercaptophenol],effect on WL/WL KCNQ2/3 (in words),KCNQ2-W236L/KCNQ3-W265L,insensitive
same,concentration from which KCNQ2/3 is inhibited,KCNQ2/3 [1],~100 µM
same,effect of co-applied compound (100 μM) on KCNQ2/3 activation by MTX (30 μM) or IVA (500 μM),KCNQ2/3 [1],did not alter
same,effect on KCNQ2/3 activity (in words),KCNQ2/3 [1],inhibits; also recorded: inhibitory at higher doses
same,"effect on voltage dependence of KCNQ2/3 activation, screen of M. oppositifolius leaf compounds",KCNQ2/3 [1],positive-shifted
"NC(C(=O)O)c1ccc(F)cc1 (stereo not drawn) [4FPG, 4-(fluorophenyl)glycine]",effect on KCNQ3* (in words),KCNQ3* (KCNQ3-A315T),no effects
same,EC50,KCNQ2,69 ± 31 nM
same,EC50,KCNQ1,90 ± 20 nM
same,EC50,"KCNQ2/3 [1]; Example 4, read-out: EC50, shift in voltage dependence of KCNQ2/3 activation (ΔV0.5act)",61 ± 42 nM
same,effect on KCNQ5 (in words),KCNQ5,no effects
same,EC50,"KCNQ4; Example 4, read-out: EC50, ΔV0.5act of KCNQ4",49 ± 12 nM
"NCCCC(=O)O [GABA, γ-aminobutyric acid, reference compound]",effect on KCNQ4 (in words),KCNQ4,unable to open
"NCC(O)CC(=O)O (stereo not drawn) [GABOB, γ-Amino-β-hydroxybutyric acid]",effect of co-applied compound (100 μM) on KCNQ2/3 activation by MTX (30 μM) or IVA (500 μM),KCNQ2/3 [1],only partially diminishes; also recorded: highly effective at competing out
O=C(Nc1ccc(Cl)nc1)c1ccc(F)c(F)c1 [ICA-27243],potency at opening KCNQ2/3 versus KCNQ4,KCNQ2/3 [2],> 20 fold
O=C(Nc1cnc(Cl)nc1)c1ccc(F)c(F)c1 [ICA-069673],selectivity KCNQ2/3 versus KCNQ3/5 activation,KCNQ2/3 [2],20 fold
O=C1c2ccccc2C(Cc2ccncc2)(Cc2ccncc2)c2ccccc21 [XE991],latency to first PTZ-induced seizure,[3]; XE991 2.5 mgkg−1 with (E)-2-dodecenal 20 mgkg−1,eliminated the protective effect
same,inhibition of activator-augmented KCNQ2/3 current,KCNQ2/3 [1]; after wash-in of MTX or gabapentin,rapidly inhibited; also recorded: completely inhibited
O=C(O)C=CCC(=O)O [glutaconic acid],"effect on voltage dependence of KCNQ2/3 activation, screen of M. oppositifolius leaf compounds",KCNQ2/3 [1],negative-shifted
CCCCCCCC/C=C\CCCCCCCC(N)=O [oleamide],effect on KCNQ2/3 activity (in words),KCNQ2/3 [1],slightly increased KCNQ2/3 currents at higher voltages
CCCCCCCCCCCCCCCC(=O)O [palmitic acid],"effect on voltage dependence of KCNQ2/3 activation, screen of M. oppositifolius leaf compounds",KCNQ2/3 [1],negative-shifted
CC(C)C[C@H](CN)CC(=O)O [pregabalin],concentration from which KCNQ2/3 is inhibited,KCNQ2/3 [1],≥ 10 µM
same,effect on KCNQ2/3 activity (in words),KCNQ2/3 [1],does not activate; also recorded: no augmenting effect
same,effect on KCNQ2/3 gating kinetics,KCNQ2/3 [1],no effects
same,shift of membrane potential (EM) of KCNQ2/3-expressing oocytes,KCNQ2/3 [1]; unclamped oocytes,failed to shift
"CCCCCCCCCCCCC=O [tridecanal, reference compound]",latency to first PTZ-induced seizure,[3]; 20 mgkg−1 i.p.,no effect
same,effect on KCNQ2/3 activity (in words),KCNQ2/3 [1],KCNQ2/3-inactive
CCCCC(=O)O [valeric acid],KCNQ2/3 activation (previously found),KCNQ2/3 [2],inactive
